Reference: patent US20230075822A1, “USE OF CASTALAGIN OR ANALOGS THEREOF FOR ANTI-CANCER EFFICACY AND TO INCREASE THE RESPONSE TO IMMUNE CHECKPOINT INHIBITORS” (THE ROYAL INSTITUTION FOR THE ADVANCEMENT OF …, priority 2020, published 2023)

How the values were obtained:
[1] = test system: gut microbiota; assay: 16S rRNA gene sequencing of mouse feces (microbiome profiling); type: in vivo, mice
Experimental: Genomic DNA extraction from mouse feces. Total genomic DNA from fecal pellets was extracted using ZymoBIOMICS DNA Miniprep Kit (Zymo Research Corporation) and immediately stored at -80° C. This protocol involves a bead beating step to ensure full recovery of bacterial DNA. DNA concentration and quality were measured using the Nanodrop ND-1000 (ThermoFisher).
16S rRNA gene sequence processing and analysis mouse feces samples. Isolated DNA was analyzed using 16S ribosomal RNA (rRNA) gene sequence to investigate the microbial composition in fecal samples. The V3—V4 region of the 16S rDNA gene was amplified by PCR using primers Bakt_341F (5′-CCTACGGGNGGCWGCAG-3′, SEQ ID NO:5) and Bakt_805R (5′-[…]-3′, SEQ ID NO:6) adapted to incorporate the transposon-based Illumina Nextera adapters (Illumina) and a sample barcode sequence allowing multiplexed paired-end sequencing. PCR mixtures contained 1× Q5 buffer (NEB), 1× Q5 Enhancer (NEB), 200 μM dNTP (VWR International), 0.2 μM of forward and reverse primer (Integrated DNA Technologies), 1 unit of Q5 (NEB) and 1 μl of template DNA in a 50 μl reaction. The PCR cycling conditions consisted of an initial denaturation of 30 sec at 98° C., followed by a first set of 15 cycles (98° C. for 10 sec, 55° C. for 30 sec and 72° C. for 30 sec), then by a second step of 15 cycles (98° C. for 10 sec, 65° C. for 30 sec and 72° C. for 30 sec) and final elongation of 2 min at 72° C. before cooling to 4° C. indefinitely. PCR products were purified using 35 pl of magnetic beads (AxyPrep Mag PCR Clean up kit; Axygen Biosciences) per 50 μl PCR reaction. Amplifications were controlled on a Bioanalyzer 2100 using DNA 7500 chips (Agilent Technologies). Samples were pooled at an equimolar ratio; the pool was repurified as described before and checked for quality on a Bioanalyzer 2100 using a DNA high sensitivity chip. The pool was quantified using picogreen (Life Technologies) and loaded on a MiSeq system (Illumina). High-throughput sequencing was performed at the IBIS (Institut de Biologie Integrative et des Systèmes—Université Laval).
Gene sequence processing and analysis was performed using R v4.0.0. DADA2R package v1.16.0 (Callahan et al., Nat Methods. 2016 July; 13(7):581-3) was used to generate exact amplicon sequence variants (ASV) of each sample from raw amplicon sequences. Sequences were corrected for Illumina amplicon sequence errors, de-replicated, chimera removed, and merged of paired-end reads with 260-bases for forward reads and 190-bases for reverse reads. The taxonomy assignment was performed against the SILVA reference database v138 (Quast et al., Nucleic Acids Res. 2013 January; 41(Database issue):D590-6). Archea and Eukaryota residual sequences were removed. Downstream analyses were performed at the genus-level through phyloseq R package v1.32.0 (McMurdie et al., PLoS One. 2013 Apr 22;8(4):e61217). The alpha-diversity was estimated with the Shannon diversity index and the Inverse Simpson index. These indexes were compared between groups using Mann-Whitney tests.
Statistical analysis. Statistical analysis was performed using R v4.0.0. The Mann-Whitney U test was used to determine significant differences among the different groups using alpha-diversity which show the diversity in each individual sample measures. DESeq2 (Love et al., Genome Biol. 2014;15(12):550) was used to perform differential abundances analysis at the genus-level. […]

[2] = test system: MCA-205 sarcoma; assay: MCA-205 tumor model in germ-free conditions; type: in vivo, C57BL/6 mice; conditions: castalagin 0.85 mg/kg per mouse
Experimental: FIG. 9A is a graph showing the effects of castalagin administration at the standard concentration (0.85 mg/kg per mouse) in germ-free conditions on tumor size in the murine MCA-205 tumor model.
Murine studies. All animal studies were approved by the Institutional Animal Care Committee (CIPA) and carried out in compliance with the Canadian Council on Animal Care guidelines. Murine experiments were conducted using seven-week-old female C57BL/6 mice, obtained from Charles River, Canada. Germ-free female C57BL/6 mice were purchased from the International Microbiome Centre Germ-Free Facility (University of Calgary, Canada) and maintained at the CR-CHUM Germ-Free Facility.
Subcutaneous model of MCA-205 sarcoma and E0771 breast cancer. Syngeneic C57BL/6 mice were implanted with 0.8×10^6 MCA-205 or 0.5×10^6 E0771 subcutaneously. When tumors reached 20 to 35 mm^2 in size, mice were treated four times (or two times for flow cytometry analysis, see section below) intraperitoneally (i.p.) every three day with anti-PD-1 monoclonal antibody (mAb) (250 μg/mouse; clone RMP1-14, BioXcell) or isotype control (clone 2A3, BioXcell). […] In the control group mice received daily oral gavage with water (100 μL) Tumor area was routinely monitored every three days by means of a caliper. […]

Compound: O=C1OC[C@H]2OC(=O)c3cc(O)c(O)c(O)c3-c3c(O)c(O)c(O)c4c3C(=O)O[C@H]([C@H]3OC(=O)c5c-4c(O)c(O)c(O)c5[C@@H]3O)[C@@H]2OC(=O)c2cc(O)c(O)c(O)c2-c2c1cc(O)c(O)c2O [castalagin, Castalagin]
- beta-diversity (Bray-Curtis) ([1]; MCA-205 model, SPF mice, castalagin or water gavage): significant clusters formation observed with beta-diversity
- differential abundance, taxa enriched ([1]; MCA-205 model, SPF mice, castalagin/IsoPD-1 vs water/IsoPD-1): enrichment of Akkermensia, Ruminococcaceae UBA1819, Ruminococcus, Staphylococcus, Escherichia/shigella, Blautia and Alistipes
- alpha-diversity (observed genus) ([1]; MCA-205 model, SPF mice, castalagin/isoPD-1, post-castalagin vs baseline): increased alpha-diversity
- relative abundance, genera increased ([1]; NR FMT experiment, castalagin groups relative to water groups): increase of the relative abundance after 16s sequencing analysis of Ruminococcus, Alistepes, Christensenellaceae R7 group, Paraprevotella
- relative abundance of Lachnoclostridium ([1]; NR FMT experiment, castalagin vs water groups): no difference of Lachnoclostridium was observed
- tumor size [2]: abrogated castalagin antitumor effect
